Measured values reported in PubChem BioAssay (NCI).
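Compound exposure: 48 hours, 5 concentrations, 96-well plates. Here, GI50 denotes the concentration required for 50% inhibition of growth. TGI: concentration producing complete growth inhibition.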

What was measured:
Assay in all cases: NCI-60 cell line screen, 48 h
786-0 renal = test system: 786-0 renal
A498 renal = test system: A498 renal
A549 NSCLC = test system: A549 NSCLC
ACHN renal = test system: ACHN renal
BT-549 breast = test system: BT-549 breast
CAKI-1 renal = test system: CAKI-1 renal
CCRF-CEM leukemia = test system: CCRF-CEM leukemia
COLO 205 colon = test system: COLO 205 colon
DU-145 prostate = test system: DU-145 prostate
HCC-2998 colon = test system: HCC-2998 colon
HCT-116 colon = test system: HCT-116 colon
HCT-15 colon = test system: HCT-15 colon
HL-60(TB) leukemia = test system: HL-60(TB) leukemia
HOP-62 NSCLC = test system: HOP-62 NSCLC
HOP-92 NSCLC = test system: HOP-92 NSCLC
HS 578T breast = test system: HS 578T breast
HT29 colon = test system: HT29 colon
IGROV1 ovarian = test system: IGROV1 ovarian
K-562 leukemia = test system: K-562 leukemia
KM12 colon = test system: KM12 colon
LOX IMVI melanoma = test system: LOX IMVI melanoma
M14 melanoma = test system: M14 melanoma
MALME-3M melanoma = test system: MALME-3M melanoma
MCF7 breast = test system: MCF7 breast
MDA-MB-231 breast = test system: MDA-MB-231 breast
MDA-MB-435 = test system: MDA-MB-435
MOLT-4 leukemia = test system: MOLT-4 leukemia
NCI-H226 lung = test system: NCI-H226 lung
NCI-H23 lung = test system: NCI-H23 lung
NCI-H460 lung = test system: NCI-H460 lung
NCI-H522 lung = test system: NCI-H522 lung
NCI/ADR-RES ovarian = test system: NCI/ADR-RES ovarian
OVCAR-3 ovarian = test system: OVCAR-3 ovarian
OVCAR-4 ovarian = test system: OVCAR-4 ovarian
OVCAR-5 ovarian = test system: OVCAR-5 ovarian
OVCAR-8 ovarian = test system: OVCAR-8 ovarian
PC-3 prostate = test system: PC-3 prostate
RPMI-8226 leukemia = test system: RPMI-8226 leukemia
RXF 393 renal = test system: RXF 393 renal
SF-268 CNS = test system: SF-268 CNS
SF-295 CNS = test system: SF-295 CNS
SF-539 CNS = test system: SF-539 CNS
SK-MEL-2 melanoma = test system: SK-MEL-2 melanoma
SK-MEL-28 melanoma = test system: SK-MEL-28 melanoma
SK-MEL-5 melanoma = test system: SK-MEL-5 melanoma
SK-OV-3 ovarian = test system: SK-OV-3 ovarian
SN12C renal = test system: SN12C renal
SNB-19 CNS = test system: SNB-19 CNS
SNB-75 CNS = test system: SNB-75 CNS
SR leukemia = test system: SR leukemia
SW-620 colon = test system: SW-620 colon
T-47D breast = test system: T-47D breast
TK-10 renal = test system: TK-10 renal
U251 CNS = test system: U251 CNS
UACC-257 melanoma = test system: UACC-257 melanoma
UACC-62 melanoma = test system: UACC-62 melanoma
UO-31 renal = test system: UO-31 renal

`COc1cc(-c2cc(/C=C3\C(=O)Nc4ccc(Cl)cc43)[nH]n2)cc(OC)c1OC` was tested, and the GI50 (786-0 renal) was 15.2 µM, the TGI (786-0 renal) was > 100 µM and the GI50 (A498 renal) was 1.07 µM. For the same compound, the TGI (A498 renal) was 7.24 µM, the GI50 (A549 NSCLC) was 7.08 µM and the TGI (A549 NSCLC) was > 100 µM. It also gave a GI50 (ACHN renal) of 3.46 µM, a TGI (ACHN renal) of 15.2 µM and a GI50 (BT-549 breast) of 2.52 µM. It also gave a TGI (BT-549 breast) of 7.16 µM, a GI50 (CAKI-1 renal) of 2.82 µM and a TGI (CAKI-1 renal) of 20.5 µM. It also gave a GI50 (CCRF-CEM leukemia) of 3.02 µM, a TGI (CCRF-CEM leukemia) of 26.7 µM and a GI50 (COLO 205 colon) of 2.92 µM. For the same compound, the TGI (COLO 205 colon) was 14.9 µM, the GI50 (DU-145 prostate) was 9.54 µM and the TGI (DU-145 prostate) was > 100 µM. For the same compound, the GI50 (HCC-2998 colon) was 64 µM, the TGI (HCC-2998 colon) was > 100 µM and the GI50 (HCT-116 colon) was 4.7 µM. The TGI (HCT-116 colon) was 69.3 µM, the GI50 (HCT-15 colon) was 3.6 µM and the TGI (HCT-15 colon) was > 100 µM. For the same compound, the GI50 (HL-60(TB) leukemia) was 2.26 µM, the TGI (HL-60(TB) leukemia) was 6.82 µM and the GI50 (HOP-62 NSCLC) was 5.14 µM. For the same compound, the TGI (HOP-62 NSCLC) was > 100 µM, the GI50 (HOP-92 NSCLC) was 1.45 µM and the TGI (HOP-92 NSCLC) was 16.8 µM. For the same compound, the GI50 (HS 578T breast) was 5.03 µM, the TGI (HS 578T breast) was > 100 µM and the GI50 (HT29 colon) was 7.54 µM. The TGI (HT29 colon) was 45.1 µM, the GI50 (IGROV1 ovarian) was 6.34 µM and the TGI (IGROV1 ovarian) was > 100 µM. For the same compound, the GI50 (K-562 leukemia) was 4.05 µM, the TGI (K-562 leukemia) was > 100 µM and the GI50 (KM12 colon) was 3.3 µM. For the same compound, the TGI (KM12 colon) was > 100 µM, the GI50 (LOX IMVI melanoma) was 3.45 µM and the TGI (LOX IMVI melanoma) was 22.7 µM. For the same compound, the GI50 (M14 melanoma) was 3.09 µM, the TGI (M14 melanoma) was 14 µM and the GI50 (MALME-3M melanoma) was 2.71 µM. The TGI (MALME-3M melanoma) was 8.63 µM, the GI50 (MCF7 breast) was 3.15 µM and the TGI (MCF7 breast) was > 100 µM. The GI50 (MDA-MB-231 breast) was 4.41 µM, the TGI (MDA-MB-231 breast) was > 100 µM and the GI50 (MDA-MB-435) was 3.97 µM. For the same compound, the TGI (MDA-MB-435) was > 100 µM, the GI50 (MOLT-4 leukemia) was 2.7 µM and the TGI (MOLT-4 leukemia) was 8.87 µM. It also gave a GI50 (NCI-H226 lung) of 3.84 µM, a TGI (NCI-H226 lung) of 26.5 µM and a GI50 (NCI-H23 lung) of 4.95 µM. For the same compound, the TGI (NCI-H23 lung) was > 100 µM, the GI50 (NCI-H460 lung) was 5.03 µM and the TGI (NCI-H460 lung) was > 100 µM. For the same compound, the GI50 (NCI-H522 lung) was 3.12 µM, the TGI (NCI-H522 lung) was 14.5 µM and the GI50 (NCI/ADR-RES ovarian) was 3.73 µM. For the same compound, the TGI (NCI/ADR-RES ovarian) was > 100 µM, the GI50 (OVCAR-3 ovarian) was 6.16 µM and the TGI (OVCAR-3 ovarian) was 71.6 µM. For the same compound, the GI50 (OVCAR-4 ovarian) was 5.11 µM, the TGI (OVCAR-4 ovarian) was > 100 µM and the GI50 (OVCAR-5 ovarian) was 27.9 µM. For the same compound, the TGI (OVCAR-5 ovarian) was > 100 µM, the GI50 (OVCAR-8 ovarian) was 4.31 µM and the TGI (OVCAR-8 ovarian) was > 100 µM. It also gave a GI50 (PC-3 prostate) of 2.51 µM, a TGI (PC-3 prostate) of 18.9 µM and a GI50 (RPMI-8226 leukemia) of 1.88 µM. The TGI (RPMI-8226 leukemia) was 4.81 µM, the GI50 (RXF 393 renal) was 9.21 µM and the TGI (RXF 393 renal) was > 100 µM. For the same compound, the GI50 (SF-268 CNS) was 35.3 µM, the TGI (SF-268 CNS) was > 100 µM and the GI50 (SF-295 CNS) was 3.96 µM. The TGI (SF-295 CNS) was 34.4 µM, the GI50 (SF-539 CNS) was 6.7 µM and the TGI (SF-539 CNS) was 26.3 µM. It also gave a GI50 (SK-MEL-2 melanoma) of 3.52 µM, a TGI (SK-MEL-2 melanoma) of 21 µM and a GI50 (SK-MEL-28 melanoma) of 7.37 µM. It also gave a TGI (SK-MEL-28 melanoma) of 72.4 µM, a GI50 (SK-MEL-5 melanoma) of 1.46 µM and a TGI (SK-MEL-5 melanoma) of 3.22 µM. For the same compound, the GI50 (SK-OV-3 ovarian) was 49.3 µM, the TGI (SK-OV-3 ovarian) was > 100 µM and the GI50 (SN12C renal) was 5.72 µM. For the same compound, the TGI (SN12C renal) was > 100 µM, the GI50 (SNB-19 CNS) was 5.04 µM and the TGI (SNB-19 CNS) was > 100 µM. The GI50 (SNB-75 CNS) was 3.44 µM, the TGI (SNB-75 CNS) was 27.9 µM and the GI50 (SR leukemia) was 3.06 µM. The TGI (SR leukemia) was 12.7 µM, the GI50 (SW-620 colon) was 6.1 µM and the TGI (SW-620 colon) was > 100 µM. For the same compound, the GI50 (T-47D breast) was 2.6 µM, the TGI (T-47D breast) was 18.3 µM and the GI50 (TK-10 renal) was 8.15 µM. For the same compound, the TGI (TK-10 renal) was 92.7 µM, the GI50 (U251 CNS) was 5.37 µM and the TGI (U251 CNS) was > 100 µM. The GI50 (UACC-257 melanoma) was 2.7 µM, the TGI (UACC-257 melanoma) was 11.6 µM and the GI50 (UACC-62 melanoma) was 1.73 µM. The TGI (UACC-62 melanoma) was 3.9 µM, the GI50 (UO-31 renal) was 2.81 µM and the TGI (UO-31 renal) was 23.6 µM.
